These are literature values, as cited in patent US20170312269A1, “COMPOSITIONS AND METHODS FOR REDUCING FOOD CRAVINGS” (OREXIGEN THERAPEUTICS, INC., priority 2005, published 2017).

For the data set the following is noted: in vivo; cited from earlier work.

Regarding `CNCCC(Oc1ccc(C(F)(F)F)cc1)c1ccccc1` (stereo not shown) [fluoxetine], the physiological half life result is listed as “about 9 hours”.
